In experiment [1] the target is T1, Human α4β2 (Homo sapiens, UniProt P17787+P43681).
T1 construct: host or cells: SH-EP1
As to the kind of experiment: Competition binding to human α4β2 receptors in membranes of SH-EP1/human α4β2 cells ([3H]-nicotine). Conditions: membrane competition binding.

Experiment [2] deals with T2, Rat α4β2 (Rattus norvegicus, UniProt P09483+P12390).
T2 construct: Rat cortices were obtained from Analytical Biological Services; tissue Analytical Biological Services, Incorporated (ABS, Wilmington, Del.); host or cells: rat cortex (female Sprague-Dawley)
Put plainly: Competition binding to rat α4β2 receptors in rat cortical membranes. The note with it: rat cortex membranes. As to the method: Preparation of membranes from rat tissues. Rat cortices were obtained from Analytical Biological Services, Incorporated (ABS, Wilmington, Del.). Tissues were dissected from female Sprague-Dawley rats, frozen and shipped on dry ice. Tissues were stored at −20° C. until needed for membrane preparation. […] The resulting homogenate was centrifuged at 40,000 g for 20 minutes at 4° C. and the resulting pellet was resuspended in 20 volumes of ice-cold water. After 60-minute incubation at 4° C., a new pellet was collected by centrifugation at 40,000 g for 20 minutes at 4° C. The final pellet was resuspended in preparative buffer and stored at −20° C. On the day of the assay, tissue was thawed, centrifuged at 40,000 g for 20 minutes and then resuspended in PBS (Dulbecco's Phosphate Buffered Saline, Life Technologies, pH 7.4) to a final concentration of 2-3 mg protein/mL. Protein concentrations were determined using the Pierce BCA Protein Assay kit (Pierce Biotechnology, Rockford, Ill.), with bovine serum albumin as the standard.
Competition binding to receptors in membrane preparations. […] In brief, membranes were reconstituted from frozen stocks (approximately 0.2 mg protein) and incubated for 2 h on ice in […] assay buffer (PBS) in the presence of competitor compound (0.001 nM to […]) and radioligand. [^3H]-nicotine (L-(−)-[N-methyl-3H]-nicotine, 69.5 Ci/mmol, Perkin-Elmer Life Sciences) was used for human α4β2 binding studies. [^3H]-epibatidine (52 Ci/mmol, Perkin-Elmer Life Sciences) was used for binding studies at the other receptor subtypes. […] Filters were washed 3 times and the radioactivity retained was determined by liquid scintillation counting.
Binding data analysis. Binding data were expressed as percent total control binding. Replicates for each point were averaged and plotted against the log of drug concentration.

Read-outs that look alike come from different tables or passages of the source.

In the case of `O=C(C1CC=CCC1)N1C2CNCC1C2` (stereo not shown), the Ki – broadly, a measure of affinity in units of concentration, obtained from inhibition or displacement – in experiment [1] (read-out: Human α4β2 Ki) came to 1.2 µM. As for `O=C(CC1C=CCC1)N1C2CNCC1C2` (stereo not shown), the results for the inhibition constant (Ki) in experiment [2] (Rat α4β2 Ki) and in experiment [1] (read-out: Human α4β2 Ki) were 0.071 µM and 0.15 µM, respectively. Turning to `O=C(C1Cc2ccccc2C1)N1CC2CC(C1)N2`, the Ki in experiment [1] (read-out: Human α4β2 Ki) amounted to 0.8 µM. As for `O=C(C1CC2CCC1C2)N1CC2CC(C1)N2` (stereo not shown), the values for the inhibitory constant (Ki) in experiment [2] (read-out: Rat α4β2 Ki) and in experiment [1] (Human α4β2 Ki) were 0.22 µM and 0.06 µM, respectively. Turning to `O=C(C1CCC1)N1C2CNCC1C2` [6-cyclobutylcarbonyl-3,6-diazabicyclo[3.1.1]heptane], the values for the inhibitory constant (Ki) in experiment [2] (Rat α4β2 Ki) and in experiment [1] (Human α4β2 Ki) were 0.026 µM and 0.014 µM, respectively. For `CC(C)C(=O)N1C2CNCC1C2`, the inhibition constant Ki in experiment [1] (read-out: Human α4β2 Ki) is 0.26 µM. The same measure, in the same setting: for `O=C(N1CC2CC(C1)N2)C1(C(F)(F)F)CCC1` the value was 6.3 µM; for `O=C(CC1CCOC1)N1CC2CC(C1)N2` (stereo not shown), 0.24 µM; for `O=C(c1ccnc(Cl)c1)N1C2CNCC1C2`, 0.97 µM. The same measure, in the same setting: for `CC(=O)NCCCC(=O)N1CC2CC(C1)N2` the value was 1.9 µM; for `O=C(C1Cc2ccccc2C1)N1C2CNCC1C2`, 3 µM. With `O=C(c1cnc(Cl)c(Cl)c1)N1CC2CC(C1)N2`, the Ki in experiment [1] (read-out: Human α4β2 Ki) was determined as 1.5 µM. The same measure, in the same setting: for `C[C@@H]1C[C@@H]1C(=O)N1CC2CC(C1)N2` the value was 0.022 µM. Turning to `O=C(C1CC=CC1)N1CC2CC(C1)N2`, the inhibition constant (Ki) in experiment [2] (Rat α4β2 Ki) came out at 0.26 µM; in experiment [1] (Human α4β2 Ki), 0.037 µM. For `O=C(COCc1ccccc1)N1C2CNCC1C2`, in experiment [1] (read-out: Human α4β2 Ki), the inhibition constant (Ki) was 1.4 µM. Take `O=C(C1Cc2ccccc21)N1C2CNCC1C2` (stereo not shown): the Ki in experiment [1] (read-out: Human α4β2 Ki) was determined as 9.4 µM.

Take `O=C(CC1CCCO1)N1C2CNCC1C2` (stereo not shown): in experiment [1] (read-out: Human α4β2 Ki), the inhibition constant (Ki) was 2 µM. On the same count and under the same terms, for `CC1(C)CC(C(=O)N2C3CNCC2C3)C1` the value was 0.76 µM. In the case of `O=C(C1CCCC1)N1CC2CC(C1)N2`, the figures for the Ki in experiment [2] (Rat α4β2 Ki) and in experiment [1] (Human α4β2 Ki) were 0.077 µM and 0.17 µM, respectively.

As for `O=C(c1ccno1)N1CC2CC(C1)N2` [3-(isoxazol-5-yl)carbonyl-3,6-diazabicyclo[3.1.1]heptane], in experiment [1] (read-out: Human α4β2 Ki), the Ki is 0.15 µM. Turning to `O=C(C1CC=CC1)N1C2CNCC1C2`, the Ki in experiment [1] (read-out: Human α4β2 Ki) amounted to 0.81 µM.

On to `O=C(C1CCOCC1)N1CC2CC(C1)N2`, for which the Ki in experiment [1] (read-out: Human α4β2 Ki) came out at 0.32 µM. In the case of `Cc1ncoc1C(=O)N1C2CNCC1C2`, the Ki in experiment [2] (read-out: Rat α4β2 Ki) turned out to be 0.25 µM; in experiment [1] (read-out: Human α4β2 Ki) it was 0.14 µM.

For the molecule `O=C(C1CC=CCC1)N1CC2CC(C1)N2` (stereo not shown), the inhibition constant (Ki) in experiment [2] (read-out: Rat α4β2 Ki) worked out at 0.39 µM; in experiment [1] (read-out: Human α4β2 Ki), 0.12 µM. In the case of `O=C(C1Cc2ccccc21)N1CC2CC(C1)N2` (stereo not shown), the inhibition constant Ki in experiment [1] (read-out: Human α4β2 Ki) is 2 µM. In the case of `O=C(COc1ccc(F)cc1)N1C2CNCC1C2`, the inhibitory constant (Ki) in experiment [1] (read-out: Human α4β2 Ki) is 1.3 µM.

As for `O=C(COc1ccc(F)cc1)N1CC2CC(C1)N2`, in experiment [1] (read-out: Human α4β2 Ki), the Ki turned out to be 0.36 µM. As for `O=C(c1ccc(Cl)o1)N1C2CNCC1C2` [6-(2-chlorofuran-5-yl)carbonyl-3,6-diazabicyclo[3.1.1]heptane], the Ki stood at 0.044 µM in experiment [2] (Rat α4β2 Ki) and 0.038 µM in experiment [1] (Human α4β2 Ki). In the case of `O=C(CC1CCOCC1)N1CC2CC(C1)N2`, in experiment [1] (read-out: Human α4β2 Ki), the Ki came to 2.8 µM.

As to `O=C(Cc1c[nH]c2ccccc12)N1C2CNCC1C2`, the Ki in experiment [1] (read-out: Human α4β2 Ki) worked out at 2.2 µM. Regarding `O=C(CC1CC1)N1CC2CC(C1)N2`, the figures for the Ki in experiment [2] (Rat α4β2 Ki) and in experiment [1] (Human α4β2 Ki) were 0.017 µM and 0.064 µM, respectively. Turning to `O=C(CCOc1ccc(F)cc1)N1CC2CC(C1)N2`, in experiment [1] (read-out: Human α4β2 Ki), the Ki was 0.66 µM. Consider `CC1(C)CC(C(=O)N2CC3CC(C2)N3)C1`, for which the Ki in experiment [2] (read-out: Rat α4β2 Ki) was 0.52 µM; in experiment [1] (Human α4β2 Ki), 0.069 µM. For the molecule `CCC(C)C(=O)N1CC2CC(C1)N2` (stereo not shown), the Ki in experiment [2] (read-out: Rat α4β2 Ki) turned out to be 0.24 µM; in experiment [1] (read-out: Human α4β2 Ki), 0.15 µM. With `CCC(C)C(=O)N1C2CNCC1C2` (stereo not shown), the Ki in experiment [1] (read-out: Human α4β2 Ki) turned out to be 0.29 µM.

Consider `O=C(Cc1c[nH]c2ccccc12)N1CC2CC(C1)N2`, for which, in experiment [1] (read-out: Human α4β2 Ki), the Ki amounted to 0.75 µM. Turning to `O=C([C@H]1CCCO1)N1CC2CC(C1)N2`, in experiment [1] (read-out: Human α4β2 Ki), the inhibition constant (Ki) was 0.4 µM. Regarding `O=C(CC1CCCO1)N1CC2CC(C1)N2` (stereo not shown), the Ki in experiment [1] (read-out: Human α4β2 Ki) came to 2.9 µM. In the case of `O=C(OCCF)N1CC2CC(C1)N2` [3-(2-fluoroethoxy)carbonyl-3,6-diazabicyclo[3.1.1]heptane], the Ki in experiment [2] (Rat α4β2 Ki) amounted to 0.052 µM; in experiment [1] (Human α4β2 Ki) it was 0.0059 µM.

`O=C(C1CCOC1)N1CC2CC(C1)N2` (stereo not shown) [3-(tetrahydrofuran-3-yl)carbonyl-3,6-diazabicyclo[3.1.1]heptane]: the inhibitory constant (Ki) in experiment [1] (read-out: Human α4β2 Ki) worked out at 0.27 µM. Take `O=C(C1CCC1)N1CC2CC(C1)N2`: the inhibition constant (Ki) in experiment [2] (Rat α4β2 Ki) turned out to be 0.0068 µM; in experiment [1] (Human α4β2 Ki), 0.028 µM. On to `O=C(CC1CCCC1)N1CC2CC(C1)N2`, for which, in experiment [1] (read-out: Human α4β2 Ki), the inhibitory constant (Ki) came out at 0.44 µM.

For the origin of these results see patent US8802694B2, “3,6-diazabicyclo[3.1.1]heptanes as neuronal nicotinic acetycholine receptor ligands” (Targacept, Inc., priority 2009, dated 2014).
